Measured values taken from patent US4845292A, “Hydroxy containing amines as phospholipase A2 inhibitors” (American Home Products Corporation, priority 1988, dated 1989).
pIC50: −log10 of the molar value. Counter-ions that a name gives are not always drawn.

Assays:
[1] = biological target: T1, human platelet PLA2 (Homo sapiens, UniProt P14555); experiment: Inhibition of cell free human platelet PLA2 (hydrolysis of [3H]-AA labelled E. coli phospholipids); assay type: biochemical; settings: Table 1; compounds of the invention; human platelet PLA2, pH 7.4, 37° C., 30 minutes
T1 sequence (P14555 21-144): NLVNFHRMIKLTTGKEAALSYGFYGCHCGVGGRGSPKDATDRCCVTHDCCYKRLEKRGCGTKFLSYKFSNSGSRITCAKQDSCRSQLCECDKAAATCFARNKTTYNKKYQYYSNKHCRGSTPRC
Protocol: The ability of the compounds of the invention to inhibit the activity of cell free human platelet PLA2 enzyme is measured in the following in vitro assay.
(§1) The assay is carried out as follows:
E. coli, cultured to exponential growth, are sedimented for 15 minutes at 10,000 g and resuspended in sterile isotonic saline (1-3 ml). 10-25 μCi uniformly labeled [^3 H]-arachidonic acid (AA) is added to a sterile flask, evaporated by N2 and resolubilized with 0.3 ml 20% fatty acid-free bovine serum albumen (BSA). 75-100 ml of nutrient broth and 1 ml E. coli are then added to each flask and incubated for 2-3 hours at 37° C. [^3 H]-AA labelled E. coli are then sedimented, suspended in saline and added to fresh nutrient broth and incubated for 1.5 hours at 37° C. to complete [^3 H]-AA incorporation into the phospholipids. After overnight refrigeration of cultures, E. coli are again sedimented, suspended in saline and autoclaved for 15 minutes at 120° C. E. coli cultures are washed twice with saline (first wash contains 1% BSA) and resuspended in saline. Non-labelled E. coli cultures are also prepared in the same manner. Cell number is determined by measuring the optical density at 550 nm ([…]=1 O.D.). The amount of radioactivity associated with cells is determined by counting a defined volume of cell suspension. The specific activity is subsequently adjusted by adding non-labelled E. coli to yield 10,000 cpm/10 […] of E. coli/25 ml.
Platelet PLA2 Preparation
Expired human platelets from the blood bank are centrifuged for 15 minutes at 200 g to obtain a platelet rich fraction and to remove the red blood cells. Platelets are sedimented for 15 minutes at 2500 g and the plasma is removed before adding cold 0.18N H2 SO4 (4ml/unit). Platelets are homogenized, incubated for 1 hour at 4° C., homogenized again and centrifuged for 15 minutes at 10,000 g. The PLA2 enriched supernatant fluid is removed and the amount of protein is determined by the Lowry method. The preparation is divided into various portions and stored at -20° C.
The assay measures the hydrolysis of E. coli membrane phospholipids via the release of free [^3 H]-AA from the C-2 position of phospholipids by human platelet PLA2. To ice cold 15×100 mm test tubes, the following additions are made; 2.5×10^8 E. coli (equivalent to 5 nmol phospholipid), 5 mM Ca^++, 100 mM Tris buffer (pH=7.4), 100 μg platelet extract (or an amount to produce 20-30% hydrolysis), drug or vehicle. Incubations are carried out at 37° C. in a shaking water bath for 30 minutes. The reaction is terminated by the addition of 2 volumes of tetrahydrofuran (THF) and the mixture is vortexed. Hydrolyzed [^3 H]-AA is separated from unhydrolyzed phospholipid by solid phase extraction using Bond elute NH2 columns (Analytichem Internat.). Columns are conditioned with 0.5 ml THF followed by 0.5 ml THF:H2 O (2.0:0.1 ml/v/v). Samples are loaded onto columns and hydrolyzed [^ 3 H]-AA is eluted with 1 ml THF:glacial acetic acid (98.0:2.0 ml v/v). The eluant is transferred to vials, 10 ml Optifluor is added and the radioactivity is determined by liquid scintillation counting.
Treatments are corrected for non-enzymatic hydrolysis by subtracting the dpms in treatments containing no enzyme Mean [^3 H]-AA dpm is determined and a percent inhibition relative to vehicle treated samples is calculated.
The percent hydrolysis is calculated by the following equation: [formula]

[2] = system: rat carrageenan paw edema; experiment: Rat carrageenan paw edema; assay type: in vivo, rat (Sprague-Dawley); settings: for ED50: Rattus norvegicus, po, 3 h, read-out: Oral ED50 (95% C.L.); for % Inhibition at 50 mg/kg (peroral): Table 5, 1 hour prior to carrageenan, edema at 3 hours
Protocol: The compounds in the scope of the invention are further tested in the rat carrageenan paw edema to determine their ability to inhibit the acute inflammatory response. This assay is carried out as follows: […] male Sprague-Dawley rats, in groups of 6 animals are injected subcutaneously in the right paw with 0.1 ml of 1% carrageenan at zero time. Mercury plethysmographic readings (ml) of the paw are made at zero times and 3 hours later. Test compounds are suspended or dissolved in 0.5% methylcellulose and given perorally 1 hour prior to carrageenan administration. The increase in paw volume (edema in ml.) produced by the carrageenan is measured. […] Unpaired Student's t-test is used to determine statistical significance.

[3] = system: synthesis of LTB4 by rat glycogen-elicited polymorphonuclear leukocytes (PMN); experiment: Inhibition of LTB4 synthesis by rat glycogen-elicited polymorphonuclear leukocytes in the presence of exogenous substrate; assay type: cell-based; settings: Leukocyte, A23187 stimulated; for inhibition at 10 µM: Table 2, at 10 μM
From the text: This is especially true with respect to 5,12-diHETE, which is also denoted as LTB4 [see Ford-Hitchinson, J. Roy. Soc. Med., 74, 831 (1981)]. Compounds which inhibit the PLA2 -mediated release of arachidonic acid thereby effectively prevent the oxidation of arachidonic acid to the various leukotriene products via the lipoxygenase cascade. Accordingly, the specificity of action of PLA2 inhibitors can be determined by the activity of test compounds in this assay, which measures the ability of compounds to inhibit the synthesis of LTB4 by rat glycogen-elicited polymorphonuclear leukocytes (PMN) in the presence of exogenous substrate.
as §1
(§2) Rat polymorphonuclear leukocytes (PMNs) are obtained from female Wistar rats (150.200 g) which receive an injection of 6% glycogen (10 ml i.p.). Rats are sacrificed 18-24 hours post injection by CO2 asphyxiation and the elicited cells are harvested by peritoneal lavage using physiological saline (0.9% NaCl). The exudate is centrifuged at 400×g for 10 minutes. The supernatant fluid is discarded and the cell pellet is resuspended to a concentration of 2.0×10^7 cells/ml in HBSS containing Ca^++ and Mg^++ and 10 μM L-cysteine.
(§3) To 1 ml aliquots of cell suspension, test drugs or vehicle are added, then preincubated at 37° C. for 10 minutes. A23187 (1 μM), [^3 H]-AA (3.0 μCi/ml) and unlabeled AA (1 μM) are then added and the samples are further incubated for 10 minutes. The reaction is terminated by centrifugation and pelleting cells. Supernatants are then analyzed by HPLC analysis on a 15 cm×4.6 mm ID Supelcosil LC-18 (Supelco)(3M) column, using a two solvent system at a flow rate of 1.4 ml total flow as follows:
Gradient: (system is equillibrated with Solvent A)
Percent solvent changes are accomplished in a linear fashion.
(§4) Injections: 150 μl of each supernatant is injected directly onto column and ^3 H arachidonic acid metabolites are monitored using an on-line radioactivity detector (Ramona, IN/US, Fairfield, NJ).
Standards: 10^4 -2.0×10^4 dpm of eicosanoids of interest are injected in 90 μl EtOH cocktail.
Co-chromatography with standard [^3 H] leukotriene B4 (LTB4) in medium of stimulated PMN exposed to drug is compared to that found in medium of stimulated cells exposed to no drug, generating percent inhibition.
(§5) Results are expressed as percent inhibition at a given compound dose.

[4] = system: synthesis of TxB2 by rat glycogen-elicited polymorphonuclear leukocytes; experiment: Inhibition of synthesis of the cyclooxygenase product TxB2 (procedure of Example 7); assay type: cell-based; settings: Leukocyte, rat PMN, A23187 stimulated; for inhibition at 10 µM: Table 3, at 10 μM
Protocol: as §2, §3, §4, §5
In this assay, the procedure of Example 7 is carried out as described. However, in order to determine cyclooxygenase activity, the samples are co-chromatographed with authentic reference [^3 H]-TxB2.
The results are calculated as in Example 7 and presented below: […]

SMILES | pIC50 [1] | ED50 [2] | inhibition at 10 µM [3] | inhibition at 10 µM [4] | % Inhibition at 50 mg/kg (peroral) [2] | inhibition at 5 µM ([3]; Table 2, at 5 μM) | inhibition at 5 µM ([4]; Table 3, at 5 μM)
COC(=O)C1CCCN1CCCCCCCCCCCOc1ccccc1 (racemic) [Example 3b, 1-(11-Phenoxyundecyl)-DL-proline methyl ester, hydrochloride] | 4.20 | – | – | – | – | – | –
CC(=O)Oc1ccccc1C(=O)O [Aspirin, reference compound] | – | 145 mg/kg | – | – | – | – | –
CCCCCCCCCCCCCCCCCCNC(CO)CCCC.Cl (centres unmarked) [Example 1, 2-(Octadecylamino)-1-hexanol, hydrochloride] | 4.92 | – | 24% | 26% | 26% | – | –
CCCCC(CO)NCCCCCCCCCCc1ccccc1.Cl (centres unmarked) [Example 2a, 2-[(10-Phenyldecyl)amino]-1-hexanol, hydrochloride] | 4.72 | – | 89% | 73% | 39% | – | –
CCCC[C@@H](CO)NCCCCCCCCc1ccccc1.Cl [Example 2b, (S)-2[(8-Phenyloctyl)amino]-1-hexanol, hydrochloride] | 4.35 | – | – | – | 25% | 52% | 0%
CCCCC(CO)NCCCCCCc1ccccc1.Cl (centres unmarked) [Example 2c, 2-[(6-Phenylhexyl)amino]-1-hexanol, hydrochloride] | < 4.00 | – | 16% | 24% | 34% | – | –
Cl.OC[C@@H]1CCCN1CCCCCCCCCCCOc1ccccc1 [Example 3a, (S)-1-(11-phenoxyundecyl)-2-pyrrolidinemethanol, hydrochloride] | 4.77 | – | 0% | 37% | 26% | – | –
CCOC(CNCCCCCCCCCCCOc1ccccc1)OCC.Cl [Example 4, N-(2,2-diethoxyethyl)-11-phenoxyundecanamine, hydrochloride] | 4.48 | – | – | – | 34% | – | –
OC[C@H](Cc1ccc(O)cc1)NCCCCCCCCCCc1ccccc1 [Example 5, (S)-4-hydroxy-α-[(10-phenyldecyl)amino]benzenepropanol, hydrochloride] | 4.32 | – | – | – | – | – | –
COc1ccc2c(c1)c(CC(=O)O)c(C)n2C(=O)c1ccc(Cl)cc1 [Indomethacin, reference compound] | – | 3.7 mg/kg | – | – | – | – | –
